In patent US20060183105A1, “Human brain-derived tissue-specific potassium channel” (priority 1997, published 2006):

Legend:
[1] = target: T1, human brain-derived potassium channel subunit SEQ ID NO:3 (hKvQT2) (Homo sapiens, UniProt O43526, N780T); assay: cell-based
T1 construct: EGFP (Enhanced Green Fluorescent Protein), from pEGFPC1; expressed in transfected cells; host or cells: COS-7 and HEK 293 cells, transient transfection
Experimental: transfection: HEK293 cells (ATCC, Rockville, Md.) were transfected as follows: 70 ul LipoTAXI (Stratagene, La Jolla, Calif.) was added to a polystyrene tube and gently mixed. Two (2) ug pEFGPC1 (control vector used to trace the transfected cells) and 5 ug of one of the constructs (SEQ ID NO:2 in pcDNA3 or SEQ ID NO:4 in pcDNA3) was added to the lipid/media mixture and incubated for 20 minutes. Two (2)mls of OPTI-MEM I was then added and mixed gently. Cells to be transfected were washed once with OPTI-MEM I, and the 3 ml of lipid-DNA mixture were added to the washed cells and incubated at 37° C. 5% CO2 for 4-6 hours. Cells were then refed with 10% Heat Inactivated FBS (Biowhittaker, Walkersville, Md.) DMEM (Mediatech 10-017-CV). For co-expression experiments, 2 ug pEGFPC1(control vector), 5 ug of pcDNA3QT2L ((SEQ ID NO:2 in pcDNA3) and 20 ug pcDNA3QT2S (SEQ ID NO:4 in pcDNA3) were used in this protocol. Cells were diluted and replated onto 35 mm dishes 24-48 hours prior to patch clamping.
COS-7 cells (ATCC, Rockville Md.) were transfected as follows: 25 ul DMRIE-C Reagent (Gibco BRL/Life Technologies, Gaithersburg, Md.) were added to 2 ml of OPTI-MEM I (Gibco BRL/Life Technologies, Gaithersburg, Md.), mixed gently and incubated for 20 minuets. Two (2) ug pEGPPC1QT2L (EGFP fused to the N-terminus of SEQ ID NO:2) and 7.3 ug pcDNA3 or 9.3 ug pcDNA3QT2S (SEQ ID NO:4 in pcDNA3) (for a 5 molar excess over hKvQT2L (SEQ ID NO:2) construct) were added to lipid/media mixture, mixed gently and incubated for 20 minutes. Two (2) mls of OPTI-MEM I was then added to this and mixed gently. Cells to be transfected were washed once with OPTI-MEM I, and the 4 ml of lipid-DNA mixture were added to the washed cells and incubated at 37° C. 5% CO2 for 4-6 hours. Cells were then refed with 10% Heat Inactivated FBS (Biowhittaker, Walkersville, Md.) DMEM (Mediatech 10-017-CV). Cells were trypsinized, diluted and replated onto 35 mm dishes 24-48 hours prior to patch clamping.
electrophysiology: All recordings were obtained using the conventional whole cell configuration (Hammill, O. P., et al., Pfluger Arch., 391, 85-100, 1981). Cells were transfected with 5 ug pcDNA3 or 2 ug pEGFPQT2L (EGFP fused to the N-terminus of SEQ ID NO:2) 24-48 hours prior to experiments. Extracellular solution was (mM): 160 NaCl, 4.5 KCl, 1 MgC2, 2 CaCl2, 5 HEPES, 5 glucose (pH: 7.4 by NaOH, ˜325 mOsm). In K+ selectivity experiments, equimolar Na^+ was substituted by K^+. Pipette solution was (mM): 150 K-aspartate, 2 MgCl2, 1 CaCl2, 5 HEPES, 1.6 EGTA (pH: 7.2 by KOH, ˜305 mOsm). Voltage protocols were implemented and data acquired using pClamp 6.0 software (Axon Instr., CA). Solution changes and drug application with a local perfusion system.

[2] = tested on: mouse neocortical neurons; conditions: cited from earlier work; for induction of apoptosis on exposure: neurons, exposure to the K+ ionophore or K+-channel opener
[3] = tested on: SN56 cells; conditions: attenuation of the potassium current; cited from earlier work
[4] = target: hKQT2 and hKQT3 (Homo sapiens, UniProt O43525+O43526); conditions: co-expression in oocytes, current mimics native M-currents; cited from earlier work
hKQT2 and hKQT3, sequence (O43526 whole entry): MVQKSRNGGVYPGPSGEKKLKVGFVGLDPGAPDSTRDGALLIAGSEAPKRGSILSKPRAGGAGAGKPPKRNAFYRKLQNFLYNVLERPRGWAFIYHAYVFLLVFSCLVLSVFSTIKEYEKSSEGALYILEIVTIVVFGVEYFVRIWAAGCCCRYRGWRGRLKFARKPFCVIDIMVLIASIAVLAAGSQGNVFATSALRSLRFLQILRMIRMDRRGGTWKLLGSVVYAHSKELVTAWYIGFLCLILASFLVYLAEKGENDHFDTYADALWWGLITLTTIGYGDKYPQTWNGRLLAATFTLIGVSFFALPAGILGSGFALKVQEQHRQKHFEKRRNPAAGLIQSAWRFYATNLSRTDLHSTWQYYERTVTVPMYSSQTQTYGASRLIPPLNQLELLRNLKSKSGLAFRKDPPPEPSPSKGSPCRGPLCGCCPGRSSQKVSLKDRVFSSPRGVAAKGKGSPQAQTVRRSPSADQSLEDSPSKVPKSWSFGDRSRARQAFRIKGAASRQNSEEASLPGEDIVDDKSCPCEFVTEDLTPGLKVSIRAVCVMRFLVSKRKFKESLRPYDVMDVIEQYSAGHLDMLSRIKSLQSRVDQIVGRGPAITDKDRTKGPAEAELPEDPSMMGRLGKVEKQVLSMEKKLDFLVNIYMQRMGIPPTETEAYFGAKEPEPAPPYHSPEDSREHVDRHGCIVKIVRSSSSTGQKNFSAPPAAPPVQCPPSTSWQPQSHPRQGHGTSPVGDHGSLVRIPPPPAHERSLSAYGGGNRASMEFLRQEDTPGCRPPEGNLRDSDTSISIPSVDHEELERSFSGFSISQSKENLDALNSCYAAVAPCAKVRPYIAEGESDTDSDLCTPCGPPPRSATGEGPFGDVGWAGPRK
hKQT2 and hKQT3, sequence (O43525 whole entry): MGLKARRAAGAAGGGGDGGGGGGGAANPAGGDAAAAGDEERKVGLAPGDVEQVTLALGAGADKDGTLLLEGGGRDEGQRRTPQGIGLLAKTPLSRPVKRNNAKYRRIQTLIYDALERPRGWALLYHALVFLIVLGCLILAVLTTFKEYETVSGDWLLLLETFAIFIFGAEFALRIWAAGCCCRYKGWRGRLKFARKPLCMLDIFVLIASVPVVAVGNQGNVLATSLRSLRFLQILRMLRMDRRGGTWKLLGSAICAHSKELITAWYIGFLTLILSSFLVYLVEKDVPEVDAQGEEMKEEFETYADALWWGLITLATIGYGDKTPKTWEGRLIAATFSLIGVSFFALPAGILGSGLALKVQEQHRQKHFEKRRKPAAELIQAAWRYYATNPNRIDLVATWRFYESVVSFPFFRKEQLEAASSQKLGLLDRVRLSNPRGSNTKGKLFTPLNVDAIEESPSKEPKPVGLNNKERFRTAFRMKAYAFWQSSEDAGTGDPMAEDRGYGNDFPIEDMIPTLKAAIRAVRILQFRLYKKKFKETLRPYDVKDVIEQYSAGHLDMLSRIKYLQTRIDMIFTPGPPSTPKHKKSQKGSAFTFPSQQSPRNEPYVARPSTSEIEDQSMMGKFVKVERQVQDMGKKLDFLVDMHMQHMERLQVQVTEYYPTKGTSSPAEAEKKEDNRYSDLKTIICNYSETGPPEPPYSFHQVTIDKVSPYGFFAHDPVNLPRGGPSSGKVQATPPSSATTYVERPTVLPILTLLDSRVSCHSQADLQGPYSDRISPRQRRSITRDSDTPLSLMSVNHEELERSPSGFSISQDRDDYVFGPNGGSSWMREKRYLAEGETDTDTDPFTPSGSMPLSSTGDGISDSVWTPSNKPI

T1 sequence (O43526 1-854 isoform O43526-2 N762T): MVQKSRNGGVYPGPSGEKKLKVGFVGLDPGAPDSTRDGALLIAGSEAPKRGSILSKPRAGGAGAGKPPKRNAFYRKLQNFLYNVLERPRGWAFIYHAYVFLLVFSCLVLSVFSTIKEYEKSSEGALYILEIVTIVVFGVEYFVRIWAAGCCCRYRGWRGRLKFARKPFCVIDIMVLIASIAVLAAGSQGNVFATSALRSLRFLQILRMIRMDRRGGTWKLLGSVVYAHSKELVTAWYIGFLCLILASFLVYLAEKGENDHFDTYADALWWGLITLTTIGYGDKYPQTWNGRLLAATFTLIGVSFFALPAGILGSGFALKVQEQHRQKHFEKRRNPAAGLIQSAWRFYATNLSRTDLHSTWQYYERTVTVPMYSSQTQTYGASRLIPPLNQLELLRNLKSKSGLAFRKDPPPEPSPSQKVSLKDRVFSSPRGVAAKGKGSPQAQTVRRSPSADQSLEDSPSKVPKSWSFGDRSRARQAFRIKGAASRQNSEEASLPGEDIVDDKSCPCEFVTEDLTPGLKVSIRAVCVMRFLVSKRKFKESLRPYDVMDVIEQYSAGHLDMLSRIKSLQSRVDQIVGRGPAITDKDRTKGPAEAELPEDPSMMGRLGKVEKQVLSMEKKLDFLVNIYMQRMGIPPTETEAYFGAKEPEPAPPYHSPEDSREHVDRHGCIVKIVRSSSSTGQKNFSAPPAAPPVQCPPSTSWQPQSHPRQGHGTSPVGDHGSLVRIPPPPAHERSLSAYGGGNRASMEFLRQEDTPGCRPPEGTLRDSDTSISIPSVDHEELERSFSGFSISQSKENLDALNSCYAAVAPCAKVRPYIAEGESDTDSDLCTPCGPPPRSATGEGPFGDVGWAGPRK

SMILES: CC[N+](CC)(CC)CC.[Cl-] [TEA, tetraethylammonium chloride]
- IC50 [1]: 130 µM
- slope factor of Hill fit, inhibition of SEQ ID NO:3 subunit ([1]; Hill fit to mean data points, FIG. 12D): 0.59
- block of voltage-gated outward currents ([1]; externally applied, mammalian cells transfected with SEQ ID NO:2, FIG. 12D): blocked potently
- effect on apoptosis of mouse neocortical neurons ([2]; apoptosis induced by serum deprivation or staurosporine, attenuating outward K+ current): reduced apoptosis
- effect on Aβ-mediated toxicity [3]: block Aβ-mediated toxicity
- block of hKQT2/hKQT3 current [4]: block by TEA

SMILES: [Ba+2].[Cl-].[Cl-] [barium]
- blocking of hKvQT2 (SEQ ID NO:3) channel ([1]; channel expressed in mammalian cells, properties match M-current): blocking by barium

SMILES: CC1(C)Oc2ccc(C#N)cc2C(N2CCCC2=O)C1O (centres unmarked) [cromakalim]
- induction of neuronal apoptosis ([2]; 24 to 48 hours of exposure): induced typical neuronal apoptosis
- induction of apoptosis on exposure [2]: induced apoptosis

SMILES: CC(C)[C@@H]1NC(=O)[C@H](C)OC(=O)[C@@H](C(C)C)NC(=O)[C@@H](C(C)C)OC(=O)[C@H](C(C)C)NC(=O)[C@H](C)OC(=O)[C@@H](C(C)C)NC(=O)[C@@H](C(C)C)OC(=O)[C@H](C(C)C)NC(=O)[C@H](C)OC(=O)[C@@H](C(C)C)NC(=O)[C@@H](C(C)C)OC1=O [valinomycin]
- induction of neuronal apoptosis in cortical cultures ([2]; 20 nM, 24 to 48 hours): induced typical neuronal apoptosis
- induction of apoptosis on exposure [2]: induced apoptosis
